Measurements as given in a melting point compilation (Tetko et al.).

Details: a range is the spread between reports

Structure (SMILES) | melting point
O=C(O)CCC(=O)c1ccc(-c2ccccc2)cc1 | 186 °C
COc1cccc([N+](=O)[O-])c1C | 53 to 55 °C
CC(C)(C(=O)O)c1ccccc1 | 79 to 81 °C
C1CN2CCN1CC2 | 158 to 159 °C
O=C(O)CCCCc1ccccc1 | 57.5 to 59 °C
NC(=O)OCc1ccccc1 | 87 to 88 °C
Oc1cc(O)c2ccccc2c1 | 124 to 125 °C
CCc1c(C)cccc1C | -16.2 to -16 °C
C=CCCC=C | -141 °C
NCCCCN | 27 to 27.5 °C
NCCN1CCOCC1 | 24 to 25.6 °C
CC(C)N(CCC(C(N)=O)(c1ccccc1)c1ccccn1)C(C)C (configuration not stated) | 94.8 °C
C1CC1 | -128 to -127 °C
O=C(O)CCCCCC(=O)O | 104 to 106 °C
BrC1c2ccccc2-c2ccccc21 | 103 to 104 °C
COc1cc(C(=O)O)ccc1O | 212 to 214 °C
O=[N+]([O-])c1ccc(C(F)(F)F)cc1 | 39 to 40 °C
C=CCCCCCCCCCCCCCC | 4 to 4.1 °C
O=[N+]([O-])c1cc([N+](=O)[O-])c2ccccc2c1O | 131 to 132 °C
CN(C)c1ccc(Cc2ccc(N(C)C)cc2)cc1 | 87 to 91.5 °C
O=C(c1ccccc1)c1ccccc1C(F)(F)F | 60 to 61 °C
Cc1ccc(C(C)C)cc1O | 1 to 2 °C
COc1ccc(C2CC(=O)c3c(O)cc(O)cc3O2)cc1O (configuration not stated) | 228 to 230 °C
COc1ccc(C#N)cc1 | 59 to 61.5 °C

Structure (SMILES) | melting point
CCCCCCCCO | -16 to -15 °C
Cc1ccc(C)c(Br)c1 | 9 to 10 °C
ClC(Cl)=C(Cl)Cl | -22.3 to -22 °C
Cc1nnc(S)s1 | 184 to 187 °C
O=S(c1ccccc1)c1ccccc1 | 70 to 71.2 °C
CCCCCCCCCCl | -39.4 to -39 °C
CC(C)c1cc(C(C)C)c(C(C)C)cc1C(C)C | 118 to 119 °C
C[Si](C)(C)[Si](C)(C)C | 12 to 13.5 °C
CC(=O)CCC(=O)O | 29 to 33 °C
c1ccc2c(c1)Cc1ccccc1C2 | 108 to 111 °C
COc1cc(OC)cc(OC)c1 | 52 to 54.5 °C
O=S(=O)(Cl)c1ccccc1 | 14.5 to 15 °C
CCCCCCCC#N | -46 to -45 °C
COc1cc(OC)c2ccc(=O)oc2c1 | 148 to 149 °C
CC1(C)NC(=O)NC1=O | 176 to 178 °C
O=Cc1ccc(C(=O)O)cc1 | 245 to 247 °C
COc1ccccc1C=O | 37 to 38 °C
Oc1ccc(Cl)c(Cl)c1 | 66 to 68 °C
CCCCCCCCCCc1ccccc1 | -14.4 to -14 °C
O=C(c1ccc(F)cc1)c1ccc(F)cc1 | 104 to 108 °C
CS(=O)(=O)c1ccccc1 | 86 to 87 °C
O=[N+]([O-])c1cc(C(F)(F)F)ccc1Cl | -3 to -2.5 °C
Nc1ncc2ncn(COCCO)c2n1 | 188 to 189 °C
C1CCc2nnnn2CC1 | 57.5 to 60 °C

Structure (SMILES) | melting point
Cc1ccc2sc(C)nc2c1 | 38 to 40 °C
COC(=O)C(C)C | -85 to -84.7 °C
c1cc(-c2ccncc2)ccn1 | 111 to 113 °C
CCC(C)CC(O)CC (configuration not stated) | -91.2 to -91 °C
O=C(c1ccccc1)c1cccc(Br)c1 | 76 to 81 °C
CC(=O)N[C@@H](Cc1ccc(O)cc1)C(=O)O | 149 to 153 °C
O=C(C(=O)c1ccccc1)c1ccccc1 | 94.5 to 95 °C
CCCC(C)(C)O | -103 to -102 °C
CC1CCC1 | -162 °C
Cc1ccc([N+](=O)[O-])cc1Br | 76 to 78 °C
CCCCC(C)(C)C | -121 °C
c1ccc(P(CP(c2ccccc2)c2ccccc2)c2ccccc2)cc1 | 119 to 121 °C
CC(C)(Oc1ccc(Cl)cc1)C(=O)O | 118 to 120 °C
O=C(O)CCCCC1SCC2NC(=O)NC21 (configuration not stated) | 230 to 232 °C
Cn1c(=O)c2c(ncn2C)n(C)c1=O | 235 to 238 °C
Nc1ccc(Cl)cc1 | 70 to 72.5 °C
Cc1ccnc(N)n1 | 160 °C
CC(C)c1ccc(CO)cc1 | 27 to 28 °C
BrCCCCCCBr | -2.3 to 2 °C
Nc1ccc([N+](=O)[O-])cc1 | 146 to 150 °C
OCC(CO)(CO)CO | 258 to 262 °C
Ic1ccc(I)s1 | 41 to 41.5 °C
O=c1c2ccccc2oc2ccccc12 | 175 to 176 °C
CCCC(C)=O | -78 to -76.9 °C

Structure (SMILES) | melting point
CN(C)c1ccccc1 | 2 to 3 °C
CC1CC=CCC1 (configuration not stated) | -116 to -115 °C
NC(=O)NO | 141 to 144 °C
O=C(O)c1ccccc1-c1ccc(C(F)(F)F)cc1 | 169 to 170 °C
Cc1c(N)c(=O)n(-c2ccccc2)n1C | 107 to 109 °C
CC[C@H]1CC[C@H]2[C@@H]3CC[C@@H]4CCCC[C@]4(C)[C@H]3CC[C@]12C | 83.5 to 84.5 °C
OC[C@@H](O)[C@@H](O)[C@@H](O)CO | 102 to 103 °C
Nc1ccc(C(=O)c2ccccc2)cc1 | 122 to 123 °C
Fc1ccccc1-c1ccccc1 | 73.5 to 74 °C
COC(=O)C(Cl)(Cl)Cl | -18 to -17.5 °C
O=C(O)c1cc([N+](=O)[O-])cc([N+](=O)[O-])c1 | 205 to 206 °C
CC(C)(C)c1cccc(C(C)(C)C)n1 | 2 to 2.2 °C
CCCCCCCCCC(C)O (configuration not stated) | 0 to 2 °C
O=C(O)CCC(=O)C(=O)O | 115 to 116 °C
C=C(C)CC | -138 to -137 °C
CC(N)=S | 112 to 116 °C
NC(=O)c1c(F)c(F)c(F)c(F)c1F | 147 to 148 °C
CS(=O)c1ccccc1 (configuration not stated) | 29 to 32 °C
CCc1ccc(C)c(C)c1 | -67 to -66.9 °C
CCC1(C)CCCC1 | -144 °C
S=C=Nc1ccc(Br)cc1 | 58 to 60.5 °C
CC(C)=CC=C(C)C | 12 to 13 °C
Nc1cc(Cl)c(Cl)cc1Cl | 94 to 96.5 °C
CN(C)c1ccc(C(=O)O)cc1 | 242 to 243 °C

Structure (SMILES) | melting point
c1ccc2sccc2c1 | 30 to 32 °C
CC(=O)Nc1ccccc1C | 110 to 111 °C
O=C1Nc2ccccc2C1=O | 200 to 203 °C
O=P(c1ccccc1)(c1ccccc1)c1ccccc1 | 156 °C
CCC(c1ccccc1)c1ccccc1 | 13.3 to 14 °C
ClCCCCCCl | -73 to -72 °C
CN(C)C(=O)Nc1ccc(Cl)cc1 | 170 to 174 °C
OCc1ccccc1Br | 80 to 81 °C
Oc1cccc(Br)c1 | 30 to 33 °C
Oc1ccc(C(c2ccc(O)cc2)(C(F)(F)F)C(F)(F)F)cc1 | 160 to 162 °C
Cl[SiH](Cl)Cl | -127 to -126 °C
N#CCCCl | -51 to -50 °C
CCCOC1CCC2(C)C(CC(=O)C3C2CCC2(C)C(OCCC)CCC32)C1 (configuration not stated) | 161 to 163 °C
CC(=O)c1cccs1 | 10 to 10.5 °C
COc1ccc(N)c(OC)c1 | 33.5 to 35 °C
NNC(=O)c1ccccc1O | 148 °C
CC(=O)Nc1ccc(C)cc1 | 149 to 152 °C
O=C(O)Cc1ccc(C(F)(F)F)cc1 | 80 to 84 °C
N#Cc1ccncc1 | 76 to 79 °C
O=C(O)CO | 77 to 80 °C
Oc1ccccc1-c1ccccc1 | 56 to 60 °C
CC(C)OC(=O)Nc1ccccc1 | 87.3 to 88 °C
NNC(=O)c1ccc(N)cc1 | 226 to 228 °C
Cc1n[nH]c(=S)[nH]c1=O | 218 to 220 °C

Structure (SMILES) | melting point
CC1(C)CCCCC1 | -33.3 to -33 °C
c1ccc2c(c1)ccc1cc3c(ccc4ccccc43)cc12 | 266 to 270 °C
CCCCCCCCOC(=O)c1cc(O)c(O)c(O)c1 | 99 to 102 °C
COC(=O)c1ccc(C=O)cc1 | 60 to 61 °C
COc1ccc(C(=O)O)c(OC)c1OC | 100 to 101 °C
O=P(O)(Oc1ccccc1)Oc1ccccc1 | 66 to 67.5 °C
O=[N+]([O-])c1ccccc1CCl | 47 to 51 °C
CC(Oc1cccc(Cl)c1)C(=O)O (configuration not stated) | 113 to 115 °C
Nc1ccc([N+](=O)[O-])cc1[N+](=O)[O-] | 176 to 180 °C
BrC(Br)Br | 8 to 9 °C
Cc1ccnc(C)c1 | -64 to -60 °C
Oc1cccc(Cl)c1Cl | 56 to 59 °C
c1ccc2cc3ccccc3cc2c1 | 215 to 218 °C
O=S(=O)(Cc1ccccc1)c1ccccc1 | 146 to 149 °C
O=C1CCN(c2ccccc2)N1 | 122 to 126 °C
Oc1c(Br)cc(Br)c2cccnc12 | 196 to 201 °C
Oc1ccccc1Cl | 7 to 9.8 °C
Clc1sc(Cl)c(Cl)c1Cl | 28 to 30.5 °C
O=C(O)CCCCCCCC(=O)O | 102 to 106 °C
CC(=O)c1ccc(C)s1 | 26 to 27.5 °C
Nc1ccc2ccccc2c1 | 112 to 113 °C
CC(=O)c1cccc(Br)c1 | 7.5 to 8 °C
CCc1ccc(O)cc1O | 97 to 98.5 °C
CC(Br)C(C)(Br)Br (configuration not stated) | 1.8 to 2 °C

Structure (SMILES) | melting point
O=C1CCCCC1c1ccccc1 (configuration not stated) | 57 to 58 °C
C1CCCC1 | -94 to -93.8 °C
CCCCCCCCC(C)C | -49 to -48.9 °C
CC(Cl)C(Cl)(Cl)Cl (configuration not stated) | -65 to -64 °C
CC(=O)CC(C)C | -84 to -80 °C
Oc1cccc(O)c1 | 110 to 111 °C
c1ccc(P(CCCP(c2ccccc2)c2ccccc2)c2ccccc2)cc1 | 60 to 61 °C
O=[N+]([O-])c1ccc(CO)cc1 | 94 to 96.5 °C
OCCOCCOCCO | -7 to -4 °C
CC(C)(C)N=C=S | 10 to 10.5 °C
CC(C)CC(C)C(C)C (configuration not stated) | -128 °C
Cc1ccccn1 | -70 to -66.7 °C
Fc1cc(F)cc(F)c1 | -6 to -5.5 °C
CC(CCC(=O)O)(c1ccc(O)cc1)c1ccc(O)cc1 | 172 to 173 °C
O=Cc1cc(O)ccc1O | 98 to 99 °C
Cc1c[nH]c(=O)[nH]c1=O | 316 to 317 °C
Clc1ccccc1I | 0.7 to 1 °C
NC(=O)c1ccc(C(F)(F)F)cc1 | 184 to 185 °C
Cc1cc(C)c(C)c(Br)c1C | 56 to 60 °C
Nc1ccc(Cc2ccc(N)cc2)cc1 | 90 to 92.5 °C
O=C(O)c1ccoc1 | 122 °C
CC1CNCC(C)O1 (configuration not stated) | -88 to -85 °C
O=c1ccc2ccc(O)cc2o1 | 230 °C
